Reference: US11273142B2, “Treatment for tumors driven by metabolic dysfunction” (SynDevRx, Inc., priority 2016, dated 2022)
Read-outs that look alike come from different tables or passages of the source.

How the values were obtained:
[1] = Adipose tissue mass in mice bearing B16F10 melanoma; format: in vivo, C57BL/6 male mice; details: 2 mg/kg
Experimental: (§1) C57BL/6 male mice were ad libitum fed TD.06414 a high fat diet (HFD) composed of 60% Kcal from fat (DIO) for 12-14 weeks, until average body weight of the obese mice was >40 g. Age-matched C57Bl/6 male mice were maintained on a normal rodent diet (10% fat, low-fat diet, LFD) for 12-14 weeks. The study was initiated by injecting 2×10^5 B16F10 melanoma cells into the flank of both lean and obese animals.
(§2) Treatment was via subcutaneous, intra-scapular injection at 5 ml/kg every four days (compound 1) or every 2 days (compound 4) over a 17 day period at the doses and on the schedule shown in Table 2.

[2] = cited from earlier work
[3] = Body weight of B16F10 tumor-bearing obese and lean mice; format: in vivo, C57BL/6 male mice; details: 2 mg/kg SC Q2D
Experimental: as §1
as §2, with “The mice were treated with 5% mannitol/water (vehicle control), Compound 1 or Compound 4 once tumors had reached >100 mm^3. Treatment” for “Treatment”

[4] = system: B16F10 melanoma; test: B16F10 melanoma tumor growth in obese (DIO) and lean mice; format: in vivo, C57BL/6 male mice; details: 2 mg/kg SC Q2D
Source text: The study would compare weight changes in both obese and lean animal groups; measure biologic changes in hematology parameters; and compare conjugate molecules of the present disclosure against related small molecules for efficacy.
as §1
as §2, with “The mice were treated with 5% mannitol/water (vehicle control), Compound 1 or Compound 4 once tumors had reached >100 mm^3. Treatment” for “Treatment”

[5] = every fourth day schedule; limited by confusion and insomnia; cited from earlier work
[6] = system: B16F10 melanoma; test: Metastatic lung lesions in B16F10 melanoma/DIO mice; format: in vivo, C57BL/6 male mice; details: Obese Mice; 2 mg/kg
Experimental: as §1
as §2, with “The mice were treated with 5% mannitol/water (vehicle control), Compound 1 or Compound 4 once tumors had reached >100 mm^3. Treatment” for “Treatment”

[7] = SD rats; 5 mg/kg/day (Kim et al.); cited from earlier work
[8] = NOAEL in rat; details: in vivo, after 3 mg/kg COMPOUND 1
[9] = NOAEL in dog; details: in vivo, after 0.5 mg/kg COMPOUND 1
[10] = system: CYP3A 4 & 5; test: CYP3A4/5 substrate status; format: in vitro ADME
[11] = in combination with paclitaxel; dosed three times per week; cited from earlier work

COC1C(OC(=O)/C=C/c2ccc(OCCN(C)C)cc2)CC[C@]2(CO2)C1[C@@]1(C)O[C@@H]1CC=C(C)C (stereo partly drawn) [Compound 4]
Tissue Weight, Epididymal Fat ([1]; Lean Mice): 0.134 g | Tissue Weight, Inguinal Fat ([1]; Lean Mice): 0.208 g | Tissue Weight, Retroperitoneal Fat ([1]; Lean Mice): 0.029 g | Tissue Weight, Epididymal Fat ([1]; Obese Mice): 0.424 g | Tissue Weight, Inguinal Fat ([1]; Obese Mice): 0.416 g | Tissue Weight, Retroperitoneal Fat ([1]; Obese Mice): 0.142 g | body weight effect ([2]; C57BL/6J mice, 5 mg/kg/day (Kim et al.)): weight loss | body weight effect ([2]; DIO mice, dosed at 1 mg/kg (Hughes et al.)): efficacious in eliciting weight loss | effect on body weight ([3]; lean mice): no effect on body weight | change in body weight ([3]; obese mice): −7.9% | effect on tumor growth ([4]; lean mice): no effect on tumor growth | inhibition of growth of tumors ([4]; obese mice): 28% | MTD [5]: 15 mg/m2/day | number of metastatic lung lesions, mean +/- SEM [6]: 2.4+/−0.8 lesions/mouse | body weight effect [7]: weight loss

COC1C(OC(=O)N[C@H]2CC[C@H](N)CC2)CC[C@]2(CO2)C1[C@@]1(C)O[C@@H]1CC=C(C)C (stereo partly drawn) [Compound 5]
AUC [8]: 23.3 ng·h/mL | Cmax [8]: 1.5 ng/mL | AUC [9]: 20.7 ng·h/mL | Cmax [9]: 0.4 ng/mL | CYP3A 4 & 5 substrate [10]: substrate

CO[C@@H]1[C@H](OC(=O)NC(=O)CCl)CC[C@]2(CO2)[C@H]1[C@@]1(C)O[C@@H]1CC=C(C)C [TNP-470, chloroacetylcarbamoylfumagillol]
MTD [11]: 60 mg/m2 | obesity prevention ([2]; mice, 15 or 20 mg/kg every other day (Brakenhielm)): prevention of obesity | body weight effect ([2]; ob/ob mice, daily doses 2.5 mg/kg to 10 mg/kg (Rupnick et al.)): weight loss

CO[C@@H]1[C@H](OC(=O)/C=C/C=C/C=C/C=C/C(=O)O)CC[C@]2(CO2)[C@H]1[C@@]1(C)O[C@@H]1CC=C(C)C [fumagillin]
body weight effect ([2]; C57BL/6 mice, oral 1 mg/kg daily (Lijnen et al.)): weight loss
